# Laboratory results as given in US6753005B1, “Method for tissue perfusion” (Direct Therapeutics, Inc., priority 1997, dated 2004).
# Entries after “also recorded” stand apart in the source; their conditions may differ.
# Tested on: normal rat liver
# Assay: Normal rat liver model, intrahepatic injection
# Assay type: in vivo
# Conditions: for Clinical Signs / Gross Findings (liver lesions) / Survival: 2 rats; for Gross Findings (liver lesions): 2 weeks; for Survival: sacrifice 2 weeks
# Method: 54 male Sprague-Dawley rats 250-300 g in body weight were caged in groups of 2 by treatment group, in standard animal housing facilities and given free access to food and water. Prior to surgery, animals received 0.2 ml intramuscular injection of ketamine and xylazine (30 mg/kg and 4 mg/kg respectively). Rats were anesthetized and fixed on a restraining board. The right upper quadrant of the abdomen was shaved and prepped with betadine solution. A lateral incision approximately 1 cm in length was made 2 cm to the right of the abdominal mid-line and 2 cm below the last rib on the right side and the liver exposed. Under direct visual observation, the solution was injected into the liver slowly over a period of about 2 minutes, using a Hamilton microliter syringe (702) equipped with a 27 gauge needle. The needle was withdrawn and the abdominal incision closed using 4-0 plain gut to seal the peritoneum and skin clips to close the skin. Observations of each animal were made hourly for 4 hours during the day of surgery and daily thereafter for two weeks. At two weeks the animals were sacrificed and their livers examined grossly for lesions at the site of injection.
# [1] = 100 μl ethanol + 1.25 mg carmustine (12.5 mg/ml)
# [2] = 100 μl ethanol + 2.5 mg carmustine (25 mg/ml)
# [3] = 100 μl ethanol + 5 mg carmustine (50 mg/ml)
# [4] = 100 μl ethanol + 10 mg carmustine (100 mg/ml)
# [5] = 100 μl ethanol, 12.5-50 mg/ml carmustine
smiles,measurement,setting,value
"O=NN(CCCl)C(=O)NCCCl [Carmustine, carmustine]",Clinical Signs,[1],ANAS
same,Gross Findings (liver lesions),[1],no lesion
same,Survival,[1],term
same,Gross Findings (liver lesions),[2],very small lesions
same,Survival,[2],term
same,Gross Findings (liver lesions),[3],small lesions
same,Survival,[3],term
same,Clinical Signs,[4],Less active &
same,Gross Findings (liver lesions),[4],large areas of tissue destruction; also recorded: fice. Large areas
same,Survival,[4],term
same,Clinical signs at sacrifice,[5],appeared normal at sacrifice
same,gross examination of the liver,[5],no or small lesions
same,toxic effects in normal liver tissue,solutions containing carmustine up to 50 mg/ml,no toxic effects
